“And” between values parts separate entries of the source, which are not always exact repeats. Equal entries are not always repeated. ± gives the expanded uncertainty stated by the source.
How the values were obtained:
[1] = mn = molality of the nth substance listed, in mol/kg; conditions: 100 kPa, Liquid; for speed of sound: Frequency=3 MHz, Sing-around technique in a fixed-path interferometer; for mass density: Vibrating tube method
[2] = 298.15 K; 100 kPa; Liquid; Frequency=3 MHz; Sing-around technique in a fixed-path interferometer

## O=C(N[C@H](CO)[C@H](O)c1ccc([N+](=O)[O-])cc1)C(Cl)Cl + O
[1]; 288.15 K, m1 = 0.0005
  speed of sound: 1466.9 ± 1.6 m/s
  mass density: 999.273 ± 0.23 kg/m3
[1]; 288.15 K, m1 = 0.001
  speed of sound: 1467 ± 1.6 m/s
  mass density: 999.429 ± 0.23 kg/m3
[1]; 288.15 K, m1 = 0.002
  speed of sound: 1467.1 ± 1.6 m/s
  mass density: 999.643 ± 0.23 kg/m3
[1]; 288.15 K, m1 = 0.004
  speed of sound: 1467.5 ± 1.6 m/s
  mass density: 999.922 ± 0.23 kg/m3
[1]; 298.15 K, m1 = 0.0005
  speed of sound: 1496 ± 1.6 m/s
  mass density: 997.209 ± 0.23 kg/m3
[1]; 298.15 K, m1 = 0.001
  speed of sound: 1496.1 ± 1.6 m/s
  mass density: 997.363 ± 0.23 kg/m3
[1]; 298.15 K, m1 = 0.002
  speed of sound: 1496.2 ± 1.6 m/s
  mass density: 997.576 ± 0.23 kg/m3
[1]; 298.15 K, m1 = 0.004
  speed of sound: 1496.7 ± 1.6 m/s
  mass density: 997.847 ± 0.23 kg/m3
[1]; 308.15 K, m1 = 0.0005
  speed of sound: 1519.6 ± 1.6 m/s
  mass density: 994.205 ± 0.23 kg/m3
[1]; 308.15 K, m1 = 0.001
  speed of sound: 1519.7 ± 1.6 m/s
  mass density: 994.356 ± 0.23 kg/m3
[1]; 308.15 K, m1 = 0.002
  speed of sound: 1519.9 ± 1.6 m/s
  mass density: 994.56 ± 0.23 kg/m3
[1]; 308.15 K, m1 = 0.004
  speed of sound: 1520.2 ± 1.6 m/s
  mass density: 994.831 ± 0.23 kg/m3
[1]; 318.15 K, m1 = 0.0005
  speed of sound: 1536.2 ± 1.6 m/s
  mass density: 990.372 ± 0.23 kg/m3
[1]; 318.15 K, m1 = 0.001
  speed of sound: 1536.4 ± 1.6 m/s
  mass density: 990.522 ± 0.23 kg/m3
[1]; 318.15 K, m1 = 0.002
  speed of sound: 1536.8 ± 1.6 m/s and 1536.5 ± 1.6 m/s
  mass density: 990.713 ± 0.23 kg/m3
[1]; 318.15 K, m1 = 0.004
  speed of sound: 1536.8 ± 1.6 m/s
  mass density: 990.992 ± 0.23 kg/m3

## O [water]
[2]
  speed of sound: 1495.9 ± 1.6 m/s

Source: the NIST ThermoML archive (doi:10.1021/acs.jced.6b00168)
